Read-outs that look alike come from different tables or passages of the source.

We go through eight compounds from patent publication US6645983B1, “Pharmaceutical compositions comprising 4-quinolones for treating cancers” (Laboratoire L. Lafon, priority 1999, dated 2003).

Series [1] is described as follows: Determination of the maximum tolerated dose (MTD). Conditions: B6D2F1/Jico, mouse, in vivo, ip; single intraperitoneal administration, doses 2.5 to 160 mg/kg, survival over 14 days. The essentials:
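Mice were 4- to 6-week-old B6D2F1/Jico. They received a single intraperitoneal dose of 2.5 to 160 mg/kg, and survival and body weight were followed for 14 days. MTD is given in mg/kg and is capped at 160 mg/kg by default.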

The next series relates to SW1088. Put plainly: MTT test, cytotoxic activity on non-clonogenic cell lines. In kind it is cell-based. The conditions noted are these: Homo sapiens, 10^−5 M, mean value. The essentials:
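Human astrocytoma SW1088 cells seeded, grown 24 h at 37° C, 5% CO2, then exposed to compounds at 10^−5 to 10^−10 M versus solvent control. Viability by MTT reduction: 3 h MTT incubation, formazan dissolved in DMSO and read by spectrophotometry.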

The test system of the next series is A549. The series is described as above. Type of series: cell-based. The conditions noted are these: Homo sapiens, 10^−5 M, mean value. The essentials: (§1)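 Human cancer lines seeded at 20 000–50 000 cells/ml, allowed 24 h to attach, then exposed to compounds at 10^−5 to 10^−10 M versus solvent control.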
In another series the test system is MCF7. The description is as above. Conditions: Homo sapiens, 10^−5 M, mean value. Type of series: cell-based. The essentials: as §1
For another series, the system named is T-47D. The series is described as above. Conditions: Homo sapiens, T47D, 10^−5 M, mean value. Type of series: cell-based. The method in brief:
as §1

The next series relates to LoVo. The series is described as above. In kind it is cell-based. Conditions: Homo sapiens, 10^−5 M, mean value. The method in brief: as §1
The subject of a further series is PC-3. Described as above. In kind it is cell-based. Conditions: Homo sapiens, 10^−5 M, mean value. The essentials: as §1
The test system of another series is HCT-15. Described as above. Conditions: Homo sapiens, mean value. In kind it is cell-based. The method in brief:
as §1

For a further series, the system named is A-427. Described as above. Type of series: cell-based. Conditions: Homo sapiens, 10^−5 M, mean value. The method in brief:
as §1

A further series concerns U-373MG. The series is described as above. Type of series: cell-based. Conditions: Homo sapiens, U373 MG, 10^−5 M, mean value. The method in brief: as §1
The subject of another series is U-87MG. The description is as above. Type of series: cell-based. The conditions noted are these: Homo sapiens, 10^−5 M, mean value. The essentials: as §1
The test system of a further series is T24. The series is described as above. In kind it is cell-based. Conditions: Homo sapiens, T-24, 10^−5 M, mean value. The essentials:
(§2)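 Human bladder cancer lines were seeded at 20 000–50 000 cells/ml and, after 24 h, exposed to compounds at 10^−5 to 10^−10 M against a solvent control. Formazan was dissolved in DMSO and viability was read by spectrophotometric optical density.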

In a further series the test system is J82. Described as above. In kind it is cell-based. The conditions noted are these: Homo sapiens, 10^−5 M, mean value. The essentials: as §2
Where [2] appears, read: 72 hours of incubation, control condition = 100%, read-out: mean optical density as percentage of control, SW1088.
The mark [3] stands for this setting: 72 hours of incubation, control condition = 100%, read-out: mean optical density as percentage of control, A549.
[4] abbreviates: 72 hours of incubation, control condition = 100%, read-out: mean optical density as percentage of control, MCF7.
[5] abbreviates: 72 hours of incubation, control condition = 100%, read-out: mean optical density as percentage of control, T-47D.
Where [6] appears, read: 72 hours of incubation, control condition = 100%, read-out: mean optical density as percentage of control, LoVo.
Where [7] appears, read: 72 hours of incubation, control condition = 100%, read-out: mean optical density as percentage of control, PC-3.
Setting [8] is: 10^−5 M, 72 hours of incubation, control condition = 100%, read-out: mean optical density as percentage of control, HCT-16.
Where [9] appears, read: 72 hours of incubation, control condition = 100%, read-out: mean optical density as percentage of control, A-427.
Where [10] appears, read: 72 hours of incubation, control condition = 100%, read-out: mean optical density as percentage of control, U-373MG.
The mark [11] stands for this setting: U-87 MG, 72 hours of incubation, control condition = 100%, read-out: mean optical density as percentage of control, U-87MG.
[12] abbreviates: 72 hours of incubation, control condition = 100%, read-out: mean optical density as percentage of control, T24.
Setting [13] is: 72 hours of incubation, control condition = 100%, read-out: mean optical density as percentage of control, J82.
[14] abbreviates: 72 hours incubation, MTT, read-out: mean optical density, expressed as percentage relative to the mean optical density under the control condition (100%).

For the compound `COc1ccc(-c2cn(CC#N)c3c(OC)ccc(OC)c3c2=O)cc1` [CRL8413, [5,8-Dimethoxy-3-(4-methoxyphenyl)-4-oxo-1,4-dihydro-1-quinolinyl]acetonitrile], in series [1], the MTD (commonly the largest dose that counted as tolerated) at 14 day is over 160 mg/kg. Further, the viability at 10 µM with SW1088 (setting [2]) was determined as 83.7%; in the series on A549 (setting [3]) it was 48.7%; with MCF7 (setting [4]), 67.2%; in the series with T-47D (setting [5]), 112%; in the series on LoVo (setting [6]), 85.6%; in the series on PC-3 (setting [7]), 63.4%. The viability at 10 µM came out at 65.9% in the series on HCT-15 (setting [8]); 73.3% in the series on A-427 (setting [9]); 66.4% with U-373MG (setting [10]); 56% in the series on U-87MG (setting [11]); 71.8% with T24 (setting [12]); 88.4% with J82 (setting [13]).

With `CCc1ccc(OC)c2c1c(=O)c(-c1ccc(OC)cc1)cn2C` [CRL8414, 5-Ethyl-8-methoxy-3-(4-methoxyphenyl)-1-methyl-1,4-dihydro-4-quinolinone], the MTD at 14 day in series [1] is over 160 mg/kg. The viability at 10 µM in the series with SW1088 (setting [2]) was 94.4%; in the series with A549 (setting [3]), 71.8%; in the series with MCF7 (setting [4]), 104%; in the series with T-47D (setting [5]), 96.2%; with LoVo (setting [6]) it was 84.2%; in the series on PC-3 (setting [7]), 94.3%. For the same compound, the viability at 10 µM worked out at 83.4% in the series on HCT-15 (setting [8]); 82.2% in the series on A-427 (setting [9]); 81.7% with U-373MG (setting [10]); 81.2% with U-87MG (setting [11]); 97.5% in the series with T24 (setting [12]); 110% with J82 (setting [13]).

Compound `COc1ccc(-c2cn(CCCC#N)c3cc(OC)cc(OC)c3c2=O)cc1` [CRL8420, 4-[5,7-Dimethoxy-3-(4-methoxyphenyl)-4-oxo-1,4-dihydro-1-quinolinyl]butanenitrile] came in with an MTD at 14 day in series [1] of over 160 mg/kg. The viability at 10 µM in the series on SW1088 (setting [2]) worked out at 117%; in the series on A549 (setting [3]), 94.5%; in the series with MCF7 (setting [4]) it was 103%; in the series on T-47D (setting [5]), 104%; in the series on LoVo (setting [6]), 81.2%; with PC-3 (setting [7]), 86%. The viability at 10 µM was determined as 109% in the series with HCT-15 (setting [8]); 102% with A-427 (setting [9]); 96.6% with U-373MG (setting [10]); 92.9% in the series on U-87MG (setting [11]); 111% in the series on T24 (setting [12]); 92.3% with J82 (setting [13]).

`COc1ccc(-c2cn(C)c3cc(OC)cc(NCc4ccccc4)c3c2=O)cc1` [CRL8424, 5-Benzylamino-7-methoxy-3-(4-methoxyphenyl)-1-methyl-1,4-dihydro-4-quinolinone]: in [1], the MTD at 14 day is over 160 mg/kg. Besides, the viability at 10 µM with SW1088 (setting [2]) was 82.7%; with A549 (setting [3]), 111%; in the series with MCF7 (setting [4]), 95.4%; in the series on T-47D (setting [5]) it was 108%; in the series on LoVo (setting [6]), 69.8%; in the series with PC-3 (setting [7]) it was 108%. The viability at 10 µM in the series on HCT-15 (setting [8]) was determined as 49.8%; in the series on A-427 (setting [9]), 72.7%; in the series on U-373MG (setting [10]), 82.5%; with U-87MG (setting [11]), 87.9%; in the series on T24 (setting [12]), 102%; with J82 (setting [13]) it was 77.9%.

In the case of `COc1ccc(-c2cn(C)c3cc(OC)cc(N4CCCCC4)c3c2=O)cc1` [CRL8425, 7-Methoxy-3-(4-methoxyphenyl)-1-methyl-5-piperidino-1,4-dihydro-4-quinolinone], the MTD at 14 day in series [1] is over 160 mg/kg. Besides, the viability at 10 µM in the series with SW1088 (setting [2]) came to 85.4%; in the series with A549 (setting [3]), 80.2%; in the series with MCF7 (setting [4]), 102%; with T-47D (setting [5]), 97.3%; in the series on LoVo (setting [6]) it was 71%; with PC-3 (setting [7]), 88.2%. Besides, the viability at 10 µM in the series with HCT-15 (setting [8]) amounted to 78.9%; in the series with A-427 (setting [9]) it was 81.9%; with U-373MG (setting [10]), 82.6%; with U-87MG (setting [11]), 92.6%; in the series with T24 (setting [12]), 98.2%; in the series on J82 (setting [13]), 71.9%.

In series [1], `COc1ccc(-c2cn(C)c3cc(OC)cc(N4CCCC4)c3c2=O)cc1` [CRL8434, 7-Methoxy-3-(4-methoxyphenyl)-1-methyl-5-pyrrolidino-1,4-dihydro-4-quinolinone] came in with an MTD at 14 day of over 160 mg/kg. Besides, the viability at 10 µM in the series on SW1088 (setting [2]) amounted to 99.9%; in the series with A549 (setting [3]), 99%; with MCF7 (setting [4]), 96.2%; with T-47D (setting [5]), 85.8%; with LoVo (setting [6]), 106%; in the series with PC-3 (setting [7]) it was 113%. Further, the viability at 10 µM was determined as 101% in the series on HCT-15 (setting [8]); 110% in the series with A-427 (setting [9]); 92.2% in the series with U-373MG (setting [10]); 89.7% in the series on U-87MG (setting [11]); 98.7% in the series on T24 (setting [12]); 99.3% in the series with J82 (setting [13]).

In series [1], `COc1ccc(-c2cn(C)c3cc(OC)cc(N4CCOCC4)c3c2=O)cc1` [CRL8435, 7-Methoxy-3-(4-methoxyphenyl)-1-methyl-5-morpholino-1,4-dihydro-4-quinolinone] yielded an MTD at 14 day of over 160 mg/kg. In addition, the viability at 10 µM came to 97.3% in the series with SW1088 (setting [2]); 96.7% in the series on A549 (setting [3]); 93.6% with MCF7 (setting [4]); 95.7% in the series on T-47D (setting [5]); 106% with LoVo (setting [6]); 105% in the series with PC-3 (setting [7]). Also, the viability at 10 µM in the series on HCT-15 (setting [8]) was determined as 101%; in the series with A-427 (setting [9]), 115%; in the series on U-373MG (setting [10]) it was 85%; in the series with U-87MG (setting [11]), 85%; with T24 (setting [12]), 89.4%; with J82 (setting [13]) it was 100%.

`COc1ccc(-c2cn(C)c3cc(OC)cc(N4CCN(C)CC4)c3c2=O)cc1` [CRL8436, 7-Methoxy-3-(4-methoxyphenyl)-1-methyl-5-(1-methyl-piperazino)-1,4-dihydro-4-quinolinone] gave an MTD at 14 day in series [1] of over 160 mg/kg. Moreover, the viability at 10 µM with SW1088 (setting [14]) is 102%; with A549 (setting [14]) it was 101%; in the series with MCF7 (setting [14]), 96.4%; with T-47D (T-47D, 72 hours incubation, MTT, read-out: mean optical density, expressed as percentage relative to the mean optical density under the control condition (100%)), 89.4%; in the series on LoVo (setting [14]) it was 108%; in the series on PC-3 (setting [14]), 99.9%. Also, the viability at 10 µM in the series with HCT-15 (HCT-16, 10^−5 M, 72 hours incubation, MTT, read-out: mean optical density, expressed as percentage relative to the mean optical density under the control condition (100%)) turned out to be 101%; with A-427 (setting [14]), 109%; in the series on U-373MG (U-373MG, 72 hours incubation, MTT, read-out: mean optical density, expressed as percentage relative to the mean optical density under the control condition (100%)), 97.2%; with U-87MG (U-87MG, 72 hours incubation, MTT, read-out: mean optical density, expressed as percentage relative to the mean optical density under the control condition (100%)), 97.3%; with T24 (T24, 72 hours incubation, MTT, read-out: mean optical density, expressed as percentage relative to the mean optical density under the control condition (100%)) it was 99.2%; in the series with J82 (setting [14]) it was 101%.
